For experiment [1], the system named is HL-60. In words: Antiproliferative activity against human HL60 cells incubated for 48 hrs by MTT assay. Conditions: HL-60, 48 h. Format: functional, cell-based. (In general: Formazan colour is commonly taken as a measure of viable cells.)
The subject of a further experiment is Jurkat. Put plainly: Antiproliferative activity against human Jurkat cells incubated for 48 hrs by MTT assay. It counts as functional, cell-based.
Experiment [2] deals with MDA-MB-231. Put plainly: Antiproliferative activity against human MDA-MB-231 cells incubated for 48 hrs by MTT assay. Conditions: MDA-MB-231, 48 h. Format: functional, cell-based.
Experiment [3] relates to LNCaP. Put plainly: Antiproliferative activity against human LNCAP cells incubated for 48 hrs by MTT assay. It counts as functional, cell-based.
For a further experiment, the system named is Vero. Put plainly: Cytotoxicity against African green monkey Vero cells incubated for 48 hrs by MTT assay. It counts as cell-based. To be noted: Chlorocebus sabaeus.
In the next experiment the test system is PBMC. Put plainly: Antiproliferative activity against human PBMC incubated for 48 hrs by MTT assay. Format: cell-based.
In experiment [4] the test system is HL-60. In words: Induction of DNA fragmentation in human HL60 cells at 50 uM after 24 hrs using propidium iodide staining by flow cytometric analysis. It counts as functional, cell-based. On the technique in general: In flow cytometry, cells or beads pass a laser one at a time.
Experiment [5] concerns MDA-MB-231. In words: Induction of DNA fragmentation in human MDA-MB-231 cells at 50 uM after 24 hrs using propidium iodide staining by flow cytometric analysis. It counts as functional, cell-based.
Experiment [6] concerns LNCaP. In words: Selectivity index, ratio of IC50 for African green monkey Vero cells to IC50 for human LNCAP cells. Format: functional.
The test system of experiment [7] is LNCaP. Put plainly: Selectivity index, ratio of IC50 for human PBMC to IC50 for human LNCAP cells.

The record followed here is ChEMBL document CHEMBL3627602, “Synthesis of a novel series of 2,3,4-trisubstituted oxazolidines designed by isosteric replacement or rigidification of the structure and cytotoxic evaluation” (Medchemcomm, 2014).

Active and inactive are the calls of the source. The calls are words filed in the database; no cut-off is given here. A value given as a limit tells only on which side of the number the result lay.

For `CC(C)(C)OC(=O)N1[C@@H](C(=O)Nc2ccc([N+](=O)[O-])cc2)COC1(C)C`, the IC50 (in general, the concentration that inhibits the measured activity by half) in the experiment on HL-60 [1] was greater than 50 µM; in the experiment with Jurkat, greater than 50 µM; in the experiment on MDA-MB-231 [2], greater than 80 µM; with LNCaP [3], greater than 80 µM.

Take `CC(C)(C)OC(=O)N1[C@@H](/C=C\c2ccc([N+](=O)[O-])cc2)COC1(C)C`: the IC50 in the experiment with HL-60 [1] was 18 µM; in the experiment with Jurkat, 42 µM; in the experiment with MDA-MB-231 [2], 32 µM; with LNCaP [3], 27 µM; in the experiment with Vero, greater than 100 µM; with PBMC, greater than 100 µM. In addition, the result in the experiment with HL-60 [4] was Active. In addition, the result in the experiment with MDA-MB-231 [5] was inactive.

Regarding `CC(C)(C)OC(=O)N1[C@@H](/C=C/c2ccc([N+](=O)[O-])cc2)COC1(C)C`, the IC50 in the experiment on HL-60 [1] was 23 µM; with Jurkat, 46 µM; in the experiment with MDA-MB-231 [2], 32 µM; in the experiment on LNCaP [3], 11 µM; with Vero, greater than 100 µM; in the experiment with PBMC it was greater than 100 µM. Further, the “Ratio IC50” value in the experiment on LNCaP [6] and in the experiment on LNCaP [7] was greater than 9 throughout. For the same compound, in the experiment with HL-60 [4], the result was Active. Further, in the experiment with MDA-MB-231 [5], the result was inactive.

With `COC(=O)c1ccc(CC[C@H]2COC(C)(C)N2C(=O)OC(C)(C)C)cc1`, the IC50 in the experiment with HL-60 [1] was 20 µM; with Jurkat, greater than 50 µM; in the experiment with MDA-MB-231 [2], greater than 80 µM; with LNCaP [3] it was 37 µM.

For `CC(C)(C)OC(=O)N1[C@@H](CSc2ccc([N+](=O)[O-])cc2)COC1(C)C`, the IC50 was greater than 50 µM with HL-60 [1], greater than 50 µM in the experiment on Jurkat, greater than 80 µM in the experiment with MDA-MB-231 [2] and greater than 80 µM in the experiment on LNCaP [3].
